Converted amounts (≈) assume the structure as drawn. The source made the active and inactive calls. The calls are words filed in the database; no cut-off is given here. Bounds are passed on as bounds.

Series [1] is described as follows: Cmax in Sprague-Dawley rat at 2 mg/kg administered via oral gavage measured by LC-MS/MS method. It is filed as ADME, organism-based. The arrangement: dose 2 mg/kg, route oral. As to conditions: in vivo.
Series [2] has as its system Lipid bilayer. As to the kind of experiment: Induction of membrane damage in CI/DOPG/DOPI large unilamellar vesicles assessed as calcein leakage at lower compound to lipid ratio by fluorescence based […] assay relative to control.
Series [3] concerns Mycolicibacterium smegmatis. As to the kind of experiment: Induction of impaired membrane integrity in Mycobacterium smegmatis MC2 155 assessed as reduction in membrane integrity at MIC by SYTO-9/propium iodide stain based Baclight assay relative to control. It counts as functional, str. MC2 155. The arrangement: scale not given: the % may be the effect or the level left.
The test system of series [4] is Mycolicibacterium smegmatis. Briefly: Bactericidal activity against Mycobacterium smegmatis MC2 155 measured after 2 days by time-kill assay. As to conditions: str. MC2 155. It counts as functional.
The subject of series [5] is Mycolicibacterium smegmatis. Briefly: Bactericidal activity against Mycobacterium smegmatis MC2 155 assessed as log reduction in bacterial colonies at 2 times MIC measured after 6 hrs by time-kill assay. It is filed as functional, str. MC2 155.
The nature of series [6]: Cmax in Sprague-Dawley rat at 2 mg/kg, iv administered as single bolus dose measured by LC-MS/MS method. As to conditions: in vivo. The arrangement: dose 2 mg/kg, route intravenous. It is filed as ADME, organism-based.
Series [7] can be described thus: Selectivity index, ratio of CC50 for human corneal fibroblasts assessed as reduction in ATP level to MIC90 for Mycobacterium smegmatis MC2 155.
Series [8] has as its system Mycolicibacterium smegmatis. As to the kind of experiment: Bactericidal activity against Mycobacterium smegmatis MC2 155 assessed as log reduction in bacterial colonies at 2 times MIC measured after 3 hrs by time-kill assay. It counts as functional, str. MC2 155.
Series [9] can be described thus: Clearance in Sprague-Dawley rat at 2 mg/kg, iv administered as single bolus dose measured by LC-MS/MS method. It counts as ADME, organism-based. As to conditions: in vivo.
Series [10] can be described thus: Oral bioavailability in Sprague-Dawley rat at 2 mg/kg measured by LC-MS/MS method. It is filed as ADME, organism-based. As to conditions: in vivo.
For series [11], the system named is Mycolicibacterium smegmatis. As to the kind of experiment: Bactericidal activity against Mycobacterium smegmatis MC2 155 assessed as log reduction in bacterial colonies at 3.2 uM measured after 6 hrs by time-kill assay. It is filed as functional, str. MC2 155.
The subject of series [12] is Mycolicibacterium smegmatis. Briefly: Induction of membrane integrity impairment in Mycobacterium smegmatis MC2 155 at 2 times MIC by SYTO-9/propium iodide staining based Baclight assay relative to control. It is filed as functional, str. MC2 155.
Series [13] in a line: AUC (0 to infinity) in Sprague-Dawley rat at 2 mg/kg, administered via oral gavage measured by LC-MS/MS method. It counts as ADME, organism-based. As to conditions: in vivo. Also noted: dose 2 mg/kg, time infinity, route oral.
The nature of series [14]: Terminal half life in Sprague-Dawley rat at 2 mg/kg administered via oral gavage measured by LC-MS/MS method. It counts as ADME, organism-based. As to conditions: in vivo, read-out: beta t1/2 (converted).
Series [15] has as its system Mycolicibacterium smegmatis. Briefly: Bactericidal activity against Mycobacterium smegmatis MC2 155 assessed as log reduction in bacterial colonies at 4 times MIC measured after 3 hrs by time-kill assay. It is filed as functional, str. MC2 155.
Series [16] can be described thus: Terminal half life in Sprague-Dawley rat at 2 mg/kg, iv administered as single bolus dose measured by LC-MS/MS method. It counts as ADME, organism-based. As to conditions: in vivo, read-out: beta t1/2 (converted).
The nature of series [17]: AUC (0 to infinity) in Sprague-Dawley rat at 2 mg/kg, iv administered as single bolus dose measured by LC-MS/MS method. It counts as ADME, organism-based. Also noted: dose 2 mg/kg, route intravenous, time infinity. As to conditions: in vivo.
A short description of series [18]: Volume of distribution in Sprague-Dawley rat at 2 mg/kg, iv administered as single bolus dose measured by LC-MS/MS method. It is filed as ADME, organism-based. As to conditions: in vivo.
Series [19] in a line: Selectivity index, ratio of CC50 for human corneal fibroblasts assessed as reduction in ATP level to MIC90 for Mycobacterium bovis BCG ATCC 35734.
The nature of series [20]: Tmax in Sprague-Dawley rat at 2 mg/kg administered via oral gavage measured by LC-MS/MS method. As to conditions: in vivo. It counts as ADME, organism-based.
In series [21] the test system is Mycolicibacterium smegmatis. Briefly: Induction of impaired membrane integrity in Mycobacterium smegmatis MC2 155 assessed as reduction in membrane integrity at 0.5 times MIC by SYTO-9/propium iodide stain based Baclight assay relative to control. It counts as functional, str. MC2 155. The arrangement: scale not given: the % may be the effect or the level left.

Series [22] deals with Mycobacterium tuberculosis. Briefly: Antimycobacterial activity against Mycobacterium tuberculosis H37Rv ATCC 27294 assessed as reduction in 2 log10 bacterial colonies measured after 14 to 21 days by agar dilution method. It counts as functional. Background: Agar dilution tests growth on a series of plates holding different concentrations.
Series [23] concerns Mycolicibacterium smegmatis. As to the kind of experiment: Bactericidal activity against Mycobacterium smegmatis MC2 155 assessed as log reduction in bacterial colonies at 4 times MIC measured after 24 hrs by time-kill assay. It is filed as functional, str. MC2 155.
The subject of series [24] is Mycobacterium tuberculosis. Briefly: Antimycobacterial activity against Mycobacterium tuberculosis clinical isolate 01;057 assessed as reduction in 2 log10 bacterial colonies measured after 14 to 21 days by agar dilution method. It counts as functional.
Series [25] relates to Mycobacterium tuberculosis. Briefly: Antimycobacterial activity against Mycobacterium tuberculosis clinical isolate 01;087 assessed as reduction in 2 log10 bacterial colonies measured after 14 to 21 days by agar dilution method. It counts as functional.
Series [26] deals with Lipid bilayer. Briefly: Induction of membrane damage in CI/DOPG/DOPI large unilamellar vesicles assessed as calcein leakage at 1:4 compound to lipid ratio by fluorescence based […] assay relative to control.
Series [27] deals with Lipid bilayer. Briefly: Induction of membrane damage in CI/DOPG/DOPI large unilamellar vesicles assessed as calcein leakage at 1:8 compound to lipid ratio by fluorescence based […] assay relative to control.
In series [28] the test system is Mycolicibacterium smegmatis. As to the kind of experiment: Induction of membrane disruption in Mycobacterium smegmatis MC2 155 assessed as increased cytoplasmic membrane permeability at 60 uM up to 3 hrs by Sytox green uptake assay. It counts as functional. As to conditions: str. MC2 155.

Turning to `CCCN(CCC)CCCCOc1cc2oc3cc(OCCCCN(CCC)CCC)c(OC)c(CC=C(C)C)c3c(=O)c2c(O)c1CC=C(C)C`, the maximum concentration (Cmax) worked out at 320 ng/mL in [1] and 1500 ng/mL in [6]. For the same compound, the Activity with Lipid bilayer [2] was less than 10%; in [3] it was 28%; in series [4], “Dose-dependent effect”; in series [5], 4.15; in series [8], 2.85; in series [11], 1.6. The figures for the Activity in series [12], in [15] and in [21] were 78.8%, 4.15 and less than 15%, respectively. Moreover, the “Selectivity Index” value in series [7] and in series [19] was 15 - 40 each time. The compound further displayed a CL in [9] of 24.7 mL/min/kg. For the same compound, in [10], the bioavailability fell in the range of 14 to 15%. Further, in series [13], the area under the curve AUC(0-inf) was 3300 ng·h/mL. The half-life in [14] is 4.79 h; in series [16] it was 9.93 h. The AUC in [17] was found to be 22780 ng·h/mL. Besides, the Vd in series [18] came to 1.28 L/kg. In [20], the time to peak (Tmax) was determined as 4 h.
With `COc1c(OCCCCN2CCOCC2)cc2oc3cc(OCCCCN4CCOCC4)c(CC=C(C)C)c(O)c3c(=O)c2c1CC=C(C)C`, the MIC in series [22] was determined as 4 µg/mL (≈ 5.77 µM); in series [24], 4 µg/mL (≈ 5.77 µM); in [25], 8 µg/mL (≈ 11.5 µM). For the same compound, the “Selectivity Index” value in [7] and in series [19] was 15 - 40 throughout. Further, in series [23], the Activity worked out at 2.4.
`CCN(CC)CCCCOc1cc2oc3cc(OCCCCN(CC)CC)c(OC)c(CC=C(C)C)c3c(=O)c2c(O)c1CC=C(C)C`: the Activity with Lipid bilayer [26] is 23.4%; in the series with Lipid bilayer [27], 14.6%; in series [21], less than 15%. Further, the MIC is 2 µg/mL (≈ 3.01 µM) in series [22], 4 µg/mL (≈ 6.02 µM) in series [24] and 8 µg/mL (≈ 12 µM) in [25]. In addition, the outcome in series [28] was Active.

One may read the Cmax as the highest concentration seen after dosing. The term bioavailability denotes dose-corrected exposure relative to a reference, in per cent. Broadly, the AUC(0-inf) is total exposure, with the tail of the curve extrapolated. As a reminder, the AUC is the area under the concentration-time curve, a measure of exposure. Usually Vd stands for the apparent volume that relates the amount in the body to the concentration in plasma or blood. In general, Tmax refers to the time at which the peak concentration occurs. One may read the MIC as the least concentration at which growth counts as inhibited.

The record behind these values is ChEMBL document CHEMBL3872220, “Amphiphilic xanthones as a potent chemical entity of anti-mycobacterial agents with membrane-targeting properties” (Eur J Med Chem, 2016).
